# Target: T1, Chk1 (Homo sapiens, UniProt O14757)
# T1 construct: purchased Upstate Biotechnology
# T1 sequence (O14757 1-476): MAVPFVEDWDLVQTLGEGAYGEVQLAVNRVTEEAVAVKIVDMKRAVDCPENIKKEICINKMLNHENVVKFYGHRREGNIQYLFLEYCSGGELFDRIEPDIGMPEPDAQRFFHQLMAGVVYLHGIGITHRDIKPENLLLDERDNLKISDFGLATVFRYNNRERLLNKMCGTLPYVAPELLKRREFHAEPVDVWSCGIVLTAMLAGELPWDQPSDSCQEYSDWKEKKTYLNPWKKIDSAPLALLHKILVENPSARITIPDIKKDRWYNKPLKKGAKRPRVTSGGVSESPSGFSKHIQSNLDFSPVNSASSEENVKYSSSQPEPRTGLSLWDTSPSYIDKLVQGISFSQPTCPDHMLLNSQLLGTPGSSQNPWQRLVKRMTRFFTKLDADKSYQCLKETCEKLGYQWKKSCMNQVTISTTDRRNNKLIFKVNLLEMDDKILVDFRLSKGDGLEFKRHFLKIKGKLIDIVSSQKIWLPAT
# Test: Chk1 kinase assay: incorporation of γ-33P ATP into immobilized myelin basic protein
# Format: biochemical
# Conditions: read-out: Chk1 IC50
# Outline: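 Read-out is scintillation counting of 33P incorporated into plate-bound myelin basic protein. Chk1 runs at 10 nM enzyme with 10 μM ATP, Chk2 at 20 nM with 30 μM ATP, each for 1 hour at room temperature. Duplicate points; IC50 taken as 50% activity reduction, Ki computed from IC50.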
row,IC50 [nM],SMILES
1,50 to 1000,"CNC(=O)c1nc(-c2cccc(C(=O)NCC3CC3)c2)cnc1N [Example 219, 3-amino-6-(3-{[(cyclopropylmethyl)amino]carbonyl}phenyl)-N-methylpyrazine-2-carboxamide]"
2,1000 to 10000,"CNC(=O)c1nc(-c2cccc(C(=O)NC3CCCC3)c2)cnc1N [Example 220, 3-amino-6-{3-[(cyclopentylamino)carbonyl]phenyl}-N-methylpyrazine-2-carboxamide]"
3,1000 to 10000,"CNC(=O)c1nc(-c2cccc(C(=O)Nc3ccc(C)cc3)c2)cnc1N [Example 221, 3-amino-N-methyl-6-(3-{[(4-methylphenyl)amino]carbonyl}phenyl)pyrazine-2-carboxamide]"
4,50 to 1000,"CNC(=O)c1nc(-c2cccc(C(=O)Nc3ccc(OC)cc3)c2)cnc1N [Example 222, 3-amino-N-methyl-6-[3-({[4-(methyloxy)phenyl]amino}carbonyl)phenyl]pyrazine-2-carboxamide]"
5,50 to 1000,"CNC(=O)c1nc(-c2cccc(C(=O)NCc3ccc4c(c3)OCO4)c2)cnc1N [Example 223, 3-amino-6-(3-{[(1,3-benzodioxol-5-ylmethyl)amino]carbonyl}phenyl)-N-methylpyrazine-2-carboxamide]"
6,50 to 1000,"CNC(=O)c1nc(-c2cccc(C(=O)NCc3cccc(-c4ccccc4)c3)c2)cnc1N [Example 224, 3-amino-6-(3-{[(biphenyl-3-ylmethyl)amino]carbonyl}phenyl)-N-methylpyrazine-2-carboxamide]"
7,1000 to 10000,"CNC(=O)c1nc(-c2cccc(C(=O)NC(C)(C)c3ccccc3)c2)cnc1N [Example 225, 3-amino-N-methyl-6-(3-{[(1-methyl-1-phenylethyl)amino]carbonyl}phenyl)pyrazine-2-carboxamide]"
8,50 to 1000,"CNC(=O)c1nc(-c2cccc(C(=O)NCc3ccc(F)cc3F)c2)cnc1N [Example 226, 3-amino-6-[3-({[(2,4-difluorophenyl)methyl]amino}carbonyl)phenyl]-N-methylpyrazine-2-carboxamide]"
9,50 to 1000,"CNC(=O)c1nc(-c2cccc(C(=O)NCc3ccc(OC(F)(F)F)cc3)c2)cnc1N [Example 227, 3-amino-N-methyl-6-(3-{[({4-[(trifluoromethyl)oxy]phenyl}methyl)amino]carbonyl}phenyl)pyrazine-2-carboxamide]"
10,50 to 1000,"CNC(=O)c1nc(-c2cccc(C(=O)NCc3ccc(F)c(C(F)(F)F)c3)c2)cnc1N [Example 228, 3-amino-6-{3-[({[4-fluoro-3-(trifluoromethyl)phenyl]methyl}amino)carbonyl]phenyl}-N-methylpyrazine-2-carboxamide]"
11,50 to 1000,"CNC(=O)c1nc(-c2cccc(C(=O)NCc3ccc(Cl)c(C(F)(F)F)c3)c2)cnc1N [Example 229, 3-amino-6-{3-[({[4-chloro-3-(trifluoromethyl)phenyl]methyl}amino)carbonyl]phenyl}-N-methylpyrazine-2-carboxamide]"
12,50 to 1000,"CNC(=O)c1nc(-c2cccc(C(=O)NCc3ccc(N)cc3)c2)cnc1N [Example 230, 3-amino-6-[3-({[(4-aminophenyl)methyl]amino}carbonyl)phenyl]-N-methylpyrazine-2-carboxamide]"
13,50 to 1000,"CNC(=O)c1nc(-c2cccc(C(=O)NCc3ccccc3N)c2)cnc1N [Example 231, 3-amino-6-[3-({[(2-aminophenyl)methyl]amino}carbonyl)phenyl]-N-methylpyrazine-2-carboxamide]"
14,50 to 1000,"CNC(=O)c1nc(-c2cccc(C(=O)NCc3cccc(N)c3)c2)cnc1N [Example 232, 3-amino-6-[3-({[(3-aminophenyl)methyl]amino}carbonyl)phenyl]-N-methylpyrazine-2-carboxamide]"
15,≥ 10000,"CNC(=O)c1nc(-c2cncnc2)cnc1N [Example 233, 3-amino-N-methyl-6-pyrimidin-5-ylpyrazine-2-carboxamide]"
16,1000 to 10000,"CNC(=O)c1nc(-c2cccc(S(C)(=O)=O)c2)cnc1N [Example 234, 3-amino-N-methyl-6-[3-(methylsulfonyl)phenyl]pyrazine-2-carboxamide]"
17,50 to 1000,"CNC(=O)c1nc(-c2ccc(OC3CCCCO3)cc2)cnc1N (stereo not drawn) [Example 235, 3-amino-N-methyl-6-[4-(tetrahydro-2H-pyran-2-yloxy)phenyl]pyrazine-2-carboxamide]"
18,50 to 1000,"CNC(=O)c1nc(-c2ccc(O)cc2)cnc1N [Example 236, 3-amino-6-(4-hydroxyphenyl)-N-methylpyrazine-2-carboxamide]"

row,IC50 [nM],SMILES
1,50 to 1000,"CNC(=O)c1nc(-c2cccc(C(=O)NCc3ccc(S(N)(=O)=O)cc3)c2)cnc1N [Example 237, 3-amino-6-{3-[({[4-(aminosulfonyl)phenyl]methyl}amino)carbonyl]phenyl}-N-methylpyrazine-2-carboxamide]"
2,50 to 1000,"CNC(=O)c1nc(-c2cccc(C(=O)NCc3ccc(N(C)C)cc3)c2)cnc1N [Example 238, 3-amino-6-{3-[({[4-(dimethylamino)phenyl]methyl}amino)carbonyl]phenyl}-N-methylpyrazine-2-carboxamide]"
3,50 to 1000,"CNC(=O)c1nc(-c2cccc(C(=O)NCc3cccc(Br)c3)c2)cnc1N [Example 239, 3-amino-6-[3-({[(3-bromophenyl)methyl]amino}carbonyl)phenyl]-N-methylpyrazine-2-carboxamide]"
4,50 to 1000,"CNC(=O)c1nc(-c2ccc(Cl)c(C(=O)NCc3ccccc3)c2)cnc1N [Example 240, 3-amino-6-(4-chloro-3-{[(phenylmethyl)amino]carbonyl}phenyl)-N-methylpyrazine-2-carboxamide]"
5,≥ 10000,"COC(=O)c1cccc(-c2cnc(N)c(C(=O)NC3CC3)n2)c1 [Example 241, methyl 3-{5-amino-6-[(cyclopropylamino)carbonyl]pyrazin-2-yl}benzoate]"
6,1000 to 10000,"CCNC(=O)c1nc(-c2cccc(C(=O)OC)c2)cnc1N [Example 242, methyl 3-{5-amino-6-[(ethylamino)carbonyl]pyrazin-2-yl}benzoate]"
7,50 to 1000,"CNC(=O)c1nc(-c2cccc(C(=O)NCc3cccc(C)c3C)c2)cnc1N [Example 243, 3-amino-6-[3-({[(2,3-dimethylphenyl)methyl]amino}carbonyl)phenyl]-N-methylpyrazine-2-carboxamide]"
8,50 to 1000,"CNC(=O)c1nc(-c2cccc(C(=O)NCc3ccc(O)c(OC)c3)c2)cnc1N [Example 244, 3-amino-6-{3-[({[4-hydroxy-3-(methyloxy)phenyl]methyl}amino)carbonyl]phenyl}-N-methylpyrazine-2-carboxamide]"
9,50 to 1000,"CNC(=O)c1nc(-c2cccc(C(=O)NCc3ccc(Cl)cc3C)c2)cnc1N [Example 245, 3-amino-6-[3-({[(4-chloro-2-methylphenyl)methyl]amino}carbonyl)phenyl]-N-methylpyrazine-2-carboxamide]"
10,50 to 1000,"CCOc1ccccc1CNC(=O)c1cccc(-c2cnc(N)c(C(=O)NC)n2)c1 [Example 246, 3-amino-6-{3-[({[2-(ethyloxy)phenyl]methyl}amino)carbonyl]phenyl}-N-methylpyrazine-2-carboxamide]"
11,50 to 1000,"CNC(=O)c1nc(-c2cccc(C(=O)NCc3c(Cl)cccc3Oc3ccccc3)c2)cnc1N [Example 247, 3-amino-6-{3-[({[2-chloro-6-(phenyloxy)phenyl]methyl}amino)carbonyl]phenyl}-N-methylpyrazine-2-carboxamide]"
12,50 to 1000,"CNC(=O)c1nc(-c2cccc(C(=O)NCc3cc(Cl)ccc3Cl)c2)cnc1N [Example 248, 3-amino-6-[3-({[(2,5-dichlorophenyl)methyl]amino}carbonyl)phenyl]-N-methylpyrazine-2-carboxamide]"
13,1000 to 10000,"CNC(=O)c1nc(-c2cccc(C(=O)NCc3c(OC)cccc3OC)c2)cnc1N [Example 249, 3-amino-6-{3-[({[2,6-bis(methyloxy)phenyl]methyl}amino)carbonyl]phenyl}-N-methylpyrazine-2-carboxamide]"
14,50 to 1000,"CNC(=O)c1nc(-c2cccc(C(=O)NCc3c(C)cccc3Cl)c2)cnc1N [Example 250, 3-amino-6-[3-({[(2-chloro-6-methylphenyl)methyl]amino}carbonyl)phenyl]-N-methylpyrazine-2-carboxamide]"
15,50 to 1000,"CNC(=O)c1nc(-c2cccc(C(=O)NCc3cc(F)c(F)cc3F)c2)cnc1N [Example 251, 3-amino-N-methyl-6-[3-({[(2,4,5-trifluorophenyl)methyl]amino}carbonyl)phenyl]pyrazine-2-carboxamide]"
16,1000 to 10000,"CNC(=O)c1nc(-c2cccc(C(=O)NCC(C)(C)C)c2)cnc1N [Example 252, 3-amino-6-(3-{[(2,2-dimethylpropyl)amino]carbonyl}phenyl)-N-methylpyrazine-2-carboxamide]"
17,50 to 1000,"CNC(=O)c1nc(-c2cccc(C(=O)NCC3CCCC3)c2)cnc1N [Example 253, 3-amino-6-(3-{[(cyclopentylmethyl)amino]carbonyl}phenyl)-N-methylpyrazine-2-carboxamide]"
18,50 to 1000,"CNC(=O)c1nc(-c2cccc(C(=O)NCc3cc(OC)cc(OC)c3)c2)cnc1N [Example 254, 3-amino-6-{3-[({[3,5-bis(methyloxy)phenyl]methyl}amino)carbonyl]phenyl}-N-methylpyrazine-2-carboxamide]"
